In ChEMBL document CHEMBL1201862, “PubChem BioAssay data set” (2004):
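Protocol summary: plate cells (96-well), add compound at 5 concentrations, incubate 48 h, interpolate endpoints linearly. At the GI50, growth is halved.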 Activity calls are given as the source filed them. Cut-off read from the data, not from the text of the source: active = GI50 up to about 1.1 µM and inactive = higher.

What was measured:
Test in all cases: NCI anticancer screen, dose series, 48 h
[1] = tested on: HT-29
[2] = tested on: NCI-H226
[3] = tested on: RXF 393
[4] = tested on: OVCAR-8
[5] = tested on: HCT-15
[6] = tested on: TK-10
[7] = tested on: HCC 2998
[8] = tested on: MDA-MB-231
[9] = tested on: ACHN
[10] = tested on: A498
[11] = tested on: SN12C
[12] = tested on: UACC-62
[13] = tested on: IGROV-1
[14] = tested on: SK-MEL-5
[15] = tested on: SR
[16] = tested on: OVCAR-4
[17] = tested on: NCI-H460
[18] = tested on: SK-MEL-28
[19] = tested on: BT-549
[20] = tested on: DU-145

Compound | GI50 [1] | GI50 [2] | GI50 [3] | GI50 [4] | GI50 [5] [µM] | GI50 [6] | GI50 [7] | GI50 [8] | GI50 [9] | GI50 [10] | GI50 [11] | GI50 [12] | GI50 [13] | GI50 [14] | GI50 [15] | GI50 [16] | GI50 [17] | GI50 [18] | GI50 [19] | GI50 [20]
COC(=O)CCCc1ccc2c(c1)CC1(C2)Cc2cc3c(cc2C1)CCCC3 | 29.6 µM (inactive) | 38.1 µM (inactive) | 24.7 µM (inactive) | 44.5 µM (inactive) | 14 | > 100 µM (inactive) | 26.7 µM (inactive) | > 100 µM (inactive) | 42.7 µM (inactive) | 41.9 µM (inactive) | 40.6 µM (inactive) | 21.1 µM (inactive) | 44.9 µM (inactive) | 19.2 µM (inactive) | < 0.01 µM (active) | 42.5 µM (inactive) | – | – | – | –
CSc1nnc(C(C#N)C#N)nn1 | > 100 µM (inactive) | > 100 µM (inactive) | > 100 µM (inactive) | > 100 µM (inactive) | > 100 | > 100 µM (inactive) | > 100 µM (inactive) | – | – | > 100 µM (inactive) | > 100 µM (inactive) | > 100 µM (inactive) | > 100 µM (inactive) | > 100 µM (inactive) | > 100 µM (inactive) | > 100 µM (inactive) | > 100 µM (inactive) | – | – | –
C=C(C)[C@H]1C=C[C@@H](OC(C)=O)[C@@]2(COC(C)=O)[C@H](OC(=O)CCC)[C@H]3[C@@H](OC(C)=O)[C@@H](C)C[C@]3(O)C(=O)[C@@](C)(OC(C)=O)[C@H]12 | 38.7 µM (inactive) | 40.1 µM (inactive) | > 100 µM (inactive) | 29.7 µM (inactive) | 36.2 | 32.2 µM (inactive) | 27.1 µM (inactive) | 56.9 µM (inactive) | 34.2 µM (inactive) | 67 µM (inactive) | 36 µM (inactive) | 66.5 µM (inactive) | 32.1 µM (inactive) | 34.7 µM (inactive) | 36.3 µM (inactive) | 35.6 µM (inactive) | 21.2 µM (inactive) | 80 µM (inactive) | 58.2 µM (inactive) | –
NNC(=O)N/N=C1\C(=O)N(c2ccc(Cl)c(Cl)c2)C(=O)C(=O)C1c1nc2ccccc2s1 (centres undefined) | > 100 µM (inactive) | > 100 µM (inactive) | 38.5 µM (inactive) | > 100 µM (inactive) | > 100 | > 100 µM (inactive) | > 100 µM (inactive) | – | > 100 µM (inactive) | > 100 µM (inactive) | > 100 µM (inactive) | > 100 µM (inactive) | > 100 µM (inactive) | > 100 µM (inactive) | 89.9 µM (inactive) | > 100 µM (inactive) | > 100 µM (inactive) | > 100 µM (inactive) | – | –
O=C1C(=CNc2ccccc2Cl)C(=O)N(c2ccccc2)C(=O)N1c1ccccc1 | > 100 µM (inactive) | > 100 µM (inactive) | > 100 µM (inactive) | 23.7 µM (inactive) | > 100 | > 100 µM (inactive) | > 100 µM (inactive) | > 100 µM (inactive) | > 100 µM (inactive) | 85.1 µM (inactive) | > 100 µM (inactive) | > 100 µM (inactive) | > 100 µM (inactive) | > 100 µM (inactive) | – | > 100 µM (inactive) | > 100 µM (inactive) | – | > 100 µM (inactive) | –
COc1cc(CNc2nc3cc(C(F)(F)F)ccc3nc2C)cc(OC)c1OC | 17.2 µM (inactive) | > 10 µM (inactive) | 16.6 µM (inactive) | 23.7 µM (inactive) | 13.1 | 15.7 µM (inactive) | 18.3 µM (inactive) | 14.5 µM (inactive) | 13.6 µM (inactive) | – | 14.7 µM (inactive) | 7.96 µM (inactive) | 14.7 µM (inactive) | 19.7 µM (inactive) | 14.5 µM (inactive) | – | 16.3 µM (inactive) | 20.4 µM (inactive) | – | 26.4 µM (inactive)
Cc1ccc(S(=O)(=O)C(CC(NC=O)S(=O)(=O)c2ccc(C)cc2)NC=O)cc1 (centres undefined) | > 100 µM (inactive) | > 100 µM (inactive) | > 100 µM (inactive) | > 100 µM (inactive) | > 100 | > 100 µM (inactive) | > 100 µM (inactive) | – | – | > 100 µM (inactive) | > 100 µM (inactive) | > 100 µM (inactive) | > 100 µM (inactive) | > 100 µM (inactive) | > 100 µM (inactive) | > 100 µM (inactive) | > 100 µM (inactive) | – | – | –
Cc1ccc(Nc2[nH]c(=O)[nH]c(=O)c2C)cc1Cl | > 100 µM (inactive) | > 100 µM (inactive) | > 100 µM (inactive) | > 100 µM (inactive) | 91.6 | 91.8 µM (inactive) | > 100 µM (inactive) | > 100 µM (inactive) | > 100 µM (inactive) | > 100 µM (inactive) | > 100 µM (inactive) | 59.3 µM (inactive) | 78.5 µM (inactive) | 92 µM (inactive) | – | > 100 µM (inactive) | > 100 µM (inactive) | > 100 µM (inactive) | > 100 µM (inactive) | –
